Measured values reported in patent publication US11026910B2, “α- and γ-truxillic acid derivatives and pharmaceutical compositions thereof” (The Research Foundation for The State University of New York, priority 2012, dated 2021).
“Also recorded” adds a separate entry of the source.

Experiments:
[1] = test system: brain levels of the endocannabinoid anandamide (AEA); assay: Brain levels of the endocannabinoid anandamide (AEA); type: in vivo, mice; conditions: FIG. 17
Experimental: (§1) We used male C57Bl6 mice (22-30 g, Taconic Farms) for all experiments. The animals were group housed at room temperature and kept on a 12:12 hour light:dark cycle with ad libitum access to water and food. The animals were habituated to the experimental room for one week before testing. All experiments were approved by the Stony Brook University Institutional Animal Care and Use Committee. The experimenter was blinded to the treatment conditions of each animal.

[2] = target: T1, rat FAAH (Rattus norvegicus, UniProt P97612); assay: FAAH enzyme assay, hydrolysis of [14C]AEA in HeLa homogenates; type: biochemical; conditions: FAAH-transfected HeLa homogenates
T1 construct: expressed in transfected cells; host or cells: HeLa
T1 sequence (P97612 1-579): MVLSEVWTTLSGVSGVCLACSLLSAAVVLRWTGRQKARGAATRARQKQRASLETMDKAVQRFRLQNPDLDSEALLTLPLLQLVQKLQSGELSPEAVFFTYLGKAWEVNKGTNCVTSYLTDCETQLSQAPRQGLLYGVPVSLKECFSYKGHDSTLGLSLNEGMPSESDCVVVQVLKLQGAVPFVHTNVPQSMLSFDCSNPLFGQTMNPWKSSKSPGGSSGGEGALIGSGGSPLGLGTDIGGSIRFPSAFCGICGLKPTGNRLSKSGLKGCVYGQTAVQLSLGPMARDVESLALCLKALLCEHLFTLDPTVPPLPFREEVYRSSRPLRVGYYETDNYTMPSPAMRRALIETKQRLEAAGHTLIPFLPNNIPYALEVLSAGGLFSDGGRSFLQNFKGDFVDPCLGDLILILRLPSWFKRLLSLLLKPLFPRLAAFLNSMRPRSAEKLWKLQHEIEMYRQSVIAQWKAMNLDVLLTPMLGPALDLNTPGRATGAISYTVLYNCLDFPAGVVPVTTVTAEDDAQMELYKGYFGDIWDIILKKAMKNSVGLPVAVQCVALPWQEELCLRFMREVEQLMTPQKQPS

[3] = target: T2, PPARγ (Homo sapiens, UniProt P37231); assay: PPARγ transactivation in HeLa cells; type: cell-based
T2 construct: expressed in transfected cells; host or cells: HeLa
T2 sequence (P37231 1-505): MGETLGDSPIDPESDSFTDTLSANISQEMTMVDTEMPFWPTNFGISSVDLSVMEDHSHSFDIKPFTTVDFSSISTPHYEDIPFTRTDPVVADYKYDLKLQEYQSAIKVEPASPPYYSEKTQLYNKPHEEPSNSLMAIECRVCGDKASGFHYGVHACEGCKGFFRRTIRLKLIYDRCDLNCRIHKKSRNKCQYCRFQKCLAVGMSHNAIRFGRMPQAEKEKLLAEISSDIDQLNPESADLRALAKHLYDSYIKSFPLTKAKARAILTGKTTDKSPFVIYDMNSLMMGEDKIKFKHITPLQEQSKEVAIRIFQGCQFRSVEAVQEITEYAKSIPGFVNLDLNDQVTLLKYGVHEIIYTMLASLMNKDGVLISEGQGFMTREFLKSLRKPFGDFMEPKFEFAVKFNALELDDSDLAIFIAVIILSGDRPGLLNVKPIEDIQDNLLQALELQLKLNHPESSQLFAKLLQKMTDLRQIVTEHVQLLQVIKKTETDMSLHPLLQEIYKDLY
Experimental: (§2) PPARα and PPARγ transactivation assays were performed in HeLa cells exactly as described (Kaczocha, M. et al. 2012).

[4] = test system: mice; assay: Acetic acid-induced writhing; type: in vivo
Experimental: as §1

[5] = target: T3, PPARα (Homo sapiens, UniProt Q07869); assay: PPARα transactivation in HeLa cells; type: cell-based
T3 construct: expressed in transfected cells; host or cells: HeLa
T3 sequence (Q07869 1-468): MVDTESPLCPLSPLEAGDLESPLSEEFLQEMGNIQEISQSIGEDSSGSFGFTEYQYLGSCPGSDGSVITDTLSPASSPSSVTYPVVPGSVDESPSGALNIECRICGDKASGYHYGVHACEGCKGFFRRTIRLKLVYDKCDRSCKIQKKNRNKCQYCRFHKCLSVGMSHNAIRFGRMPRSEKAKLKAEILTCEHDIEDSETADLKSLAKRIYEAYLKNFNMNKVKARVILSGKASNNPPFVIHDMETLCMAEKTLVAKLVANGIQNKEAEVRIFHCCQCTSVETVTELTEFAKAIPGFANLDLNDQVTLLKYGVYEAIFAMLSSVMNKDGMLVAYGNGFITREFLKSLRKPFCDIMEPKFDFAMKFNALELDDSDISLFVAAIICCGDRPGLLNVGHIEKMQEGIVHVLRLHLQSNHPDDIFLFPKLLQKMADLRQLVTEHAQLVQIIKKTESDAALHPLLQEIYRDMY
Experimental: as §2

[6] = test system: dorsal raphe (DR) serotonin (5-HT) neurons; assay: Patch-clamp electrophysiology in brain slices, glutamate-mediated EPSCs; type: cell-based
Experimental: Whole-cell-voltage clamp recordings of dorsal raphe (DR) serotonin (5-HT) neurons were performed as previously described. Briefly, DR neurons were visualized using an upright microscope (BX 51 WI, Olympus, Tokyo, Japan) equipped with a differential interference contrast and infrared imaging system. Somatic recordings from DR neurons were obtained with path electrodes ([…]) back-filled with potassium gluconate based internal solution of the following composition: 120 mM potassium gluconate, 10 mM KCl, 10 mM Na2-phosphocreatine, 10 mM HEPES, 1 mM MgCl2, 1 mM EGTA, 2 mM Na2-ATP, 0.25 mM Na-GTP, pH 7.3 (Adjusted with KOH; Osmolarity, 280 to 290 mOsmol/l). All the recordings were conducted in the presence of GABAA receptor antagonist picrotoxin (100 μM). Excitatory postsynaptic currents (EPSCs) were evoked with a single square stimulus (intensity, 1 to 10 V, duration, 100 to 200 μs) delivered via a glass stimulating electrode. […]
The amplitude of EPSCs was determined by measuring the average current during a 2-ms period at the peak of each EPSC and subtracted from the baseline current determined during a 5-ms time window before the stimulus. All EPSC amplitudes were normalized to the mean baseline amplitude recorded for at least 10 min before drug application. […]

[7] = test system: wild-type HeLa cells; assay: AEA uptake in wild-type HeLa cells; type: cell-based
Experimental: AEA uptake assays in wild-type and FABP5 knockdown HeLa cells were performed exactly as described (Kaczocha, M. et al. 2012).

[8] = 6 hrs incubation, luciferase reporter

In the case of `O=C(O)[C@H]1[C@@H](c2ccccc2)[C@@H](C(=O)Oc2cccc3ccccc23)[C@@H]1c1ccccc1` (single isomer, unassigned) [Compound 26, α-2,4-diphenyl-cyclobutane-1,3-dicarboxylic Acid mono-(1-naphthol) Ester], the “brain levels of anandamide (AEA)” value [1] is reported as “elevates”, the “inhibition of FAAH (AEA hydrolysis)” value [2] is reported as “does not inhibit” and the “activation of PPARγ” value [3, 8] is reported as roughly 3 fold. For the same compound, the “agonism at PPARγ” value ([3]; compared with rosiglitazone) was “weak agonist”, the “antinociceptive effects with SR141716 (3 mg/kg) and GW6471 (4 mg/kg)” value ([4]; FIG. 16E) was “reversed” and the acetic acid-induced writhing ([4]; FIGS. 16C-D) was “reduces”. The “activation of PPARα” value [5, 8] was roughly 2 fold, the “agonism at PPARα” value ([5]; compared with GW7647) was “weak agonist” and the “amplitude of EPSCs” value ([6]; bath application 10 μM, n=8) was 107±6.7 % of baseline. The “agonist properties at CB1 receptors” value ([6]; concluded from EPSC amplitude, 10 μM) was “is not a CB1 receptor agonist” and the “cellular AEA uptake / accumulation” value [7] was “significantly inhibited; also recorded: inhibits”.
